Reference: patent US10729738B2, “Hindered disulfide drug conjugates” (priority 2015, dated 2020)

Assay: In vitro disulfide cleavage and immolation by incubation with cysteine or glutathione (LC/MS)
Format: physicochemical
Conditions: pH 7.0, 37° C.
Method: In a first phase of the experiment, disulfide cleavage and immolation by incubation with cysteine and glutathione—with the thiol concentrations mimic those in plasma and cancer cells—was investigated using unconjugated small molecule model systems with para-nitro-pyridyl disulfide-containing linker drug analogs 1, 2 and 11 below. In particular, cleavage and immolation was evaluated in vitro by incubation at […] with cysteine ([…] or 200 μM) or glutathione (GSH, 4 mM) in 100 mM Tris buffer pH 7.0 containing 5% methanol at 37° C. Aliquots were taken at specified time points and the samples were analyzed by LC/MS on Sciex TripleTOF 5600 on a Hypersil Gold C18 column (100×2.1, […], Thermo Scientific). The column was eluted by a gradient of buffer A (0.1% formic acid in 10 mM ammonium acetate) to buffer B (0.1% formic acid in 10 mM ammonium acetate in 90% acetonitrile), 5% B 0-0.5 min, 5-25% B 0.5-8 min, 25-75% B 8-13 min, and 75-95% B 13-13.5 min, 95% B 13.5-14.5 min, 95-5% B 14.5-15 min at 0.4 mL/min. Under these conditions, para-nitropyridyl thiol was eluted at 5.3 min. All products (compounds 1, 2, 11, 3a, 3b, 4a, 4b, 12a, 12 b, 6, 7, 13 and 8) were separated and characterized by LC/MS/MS in a positive ESI ion mode. All analytes had the protonated molecular MH^+ as the major species with little source fragmentation. Full scan accurate mass peak areas were used to estimate relative abundance of each component and the disappearance of 1, 2, and 11 estimated relative full scan peak areas was consistent with that estimated based on the relative abundance compared to time 0 by MS or UV. The results are reported in Table 15 below and the analytical results are presented in Table 16 below where “Cmpd” refers to compound, “RT” refers to retention time in minutes, and “Calc. Mass” refers to calculated mass. The relative abundance of disulfide cleavage and immolation products over time were evaluated and are disclosed in FIGS. 12A to 12C, 13A to 13C, 14A to 14C and 15A to 15C where the products were monitored by LC/MS from incubations of linker drugs 1, 2, and 11 at pH 7.0 and 37° C. in the presence of: 0.2 mM cysteine (FIGS. 12A, 12B and 12C); 0.03 mM cysteine (FIGS. 13A, 13B and 13C); 4 mM glutathione (FIGS. 14A, 14B and 14C); and 0.03 mM glutathione (FIGS. 15A, 15B and 15C). In FIGS. 12A to 12C, 13A to 13C, 14A to 14C and 15A to 15C, compound reference numbers 1, 2, 3a, 3b, 4a, 4b, 6, 7, 8, 11, 12a, 12b and 13 correspond to the structures below.

Row | SMILES | Percentage of all products (30 μM cysteine, 1 h) [%] | Percentage of all products (30 μM cysteine, 4 h) [%] | Percentage of all products (30 μM cysteine, 24 h) [%] | Percentage of all products (200 μM cysteine, 1 h) [%] | Percentage of all products (200 μM cysteine, 4 h) [%] | Percentage of all products (200 μM cysteine, 24 h) [%] | Percentage of all products (4 mM GSH, 1 h) [%] | Percentage of all products (4 mM GSH, 4 h) [%] | Percentage of all products (4 mM GSH, 24 h) [%]
1 | C=C1C[C@H]2C=Nc3cc(OCCCCCOc4cc5c(cc4OC)C(=O)N4CC(=C)C[C@H]4C(O)N5C(=O)OCC4(SSc5ccc([N+](=O)[O-])cn5)CC4)c(OC)cc3C(=O)N2C1 (stereo partly drawn) [Compound 2] | 21.1 | 19.1 | 12.0 | 16.1 | 10.8 | 7.0 | 17.9 | 9.0 | 4.3
2 | C=C1C[C@H]2C=Nc3cc(OCCCCCOc4cc5c(cc4OC)C(=O)N4CC(=C)C[C@H]4C(O)N5C(=O)OCC4(SSc5ccc([N+](=O)[O-])cn5)CCC4)c(OC)cc3C(=O)N2C1 (stereo partly drawn) [Compound 11] | 21.2 | 15.5 | 4.8 | 6.5 | 3.6 | 1.5 | 9.1 | 4.5 | 0.7
